Values joined by “and” are separate entries in the source; they are usually repeats but may differ in a detail not shown here. Identical values can stand only once.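 Results reflect a 48-hour exposure of cells in 96-well plates to compound at five concentrations. GI50 is the concentration that inhibits growth by half.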 Active and inactive are the calls of the source. Cut-off read from the data, not from the text of the source: active = GI50 up to about 1.1 µM and inactive = higher.
Legend:
Assay in all cases: inhibition of tumour cell growth, NCI panel, 48 h
[1] = test system: HCC 2998
[2] = test system: SN12C
[3] = test system: SK-MEL-28
[4] = test system: MDA-N
[5] = test system: TK-10
[6] = test system: RXF 393
[7] = test system: SNB-75
[8] = test system: NCI-H460
[9] = test system: LOX IMVI
[10] = test system: OVCAR-5
[11] = test system: KM12
[12] = test system: CCRF-CEM
[13] = test system: SF-295
[14] = test system: UACC-62
[15] = test system: IGROV-1
[16] = test system: SK-MEL-5
[17] = test system: 786-0
[18] = test system: OVCAR-3
[19] = test system: HOP-62
[20] = test system: RPMI-8226

Measured: GI50

O=C1NC(=O)[C@@]2(CC[C@@H](O)C2)c2ccncc21 [SESBANINE]
inactive: [1] > 100 µM | [2] > 100 µM | [3] > 100 µM | [4] > 100 µM | [5] > 100 µM | [6] > 100 µM | [7] > 100 µM | [8] > 100 µM | [9] > 100 µM | [10] > 100 µM | [11] > 100 µM | [12] > 100 µM | [13] > 10 µM | [14] > 100 µM | [15] > 100 µM | [16] > 100 µM | [17] > 100 µM

Cc1ccc(-n2cc(-c3ccc(Cl)cc3)c3c2N=CN2N=C(c4ccco4)NC32)cc1 (centres undefined)
inactive: [1] > 100 µM | [2] 3.62 µM | [3] 71 µM | [4] 19.5 µM | [18] 6.49 µM | [5] 7.5 µM | [6] 11.2 µM | [7] 4.75 µM | [8] 4.49 µM | [9] 21.9 µM | [10] > 100 µM | [12] 21 µM | [13] 6.11 µM | [14] 13.1 µM | [15] 7.62 µM | [16] > 100 µM | [17] 4.67 µM | [19] 7.64 µM

NCC1OC(n2cnc3c(=O)[nH]c(N)nc32)C(O)C1O (centres undefined)
inactive: [2] > 100 µM | [3] > 100 µM | [4] > 100 µM | [20] 2.13 µM | [18] > 53.3 µM | [5] > 59.7 µM | [6] > 100 µM | [8] > 100 µM | [9] 69.8 µM | [10] > 100 µM | [11] > 100 µM | [12] > 82.8 µM | [13] > 100 µM | [14] > 100 µM | [15] > 100 µM | [16] > 100 µM | [17] > 100 µM | [19] > 100 µM

CSc1nc(C)cc(Nc2ccc(O)c(CN3CCCCC3)c2)n1
inactive: [2] 56.6 µM | [3] 28.8 µM | [4] 28 µM | [20] 23.3 µM | [18] > 100 µM | [6] 67.6 µM | [7] > 100 µM | [9] 33 µM | [10] 28.6 µM | [11] > 100 µM | [13] 37.9 µM | [14] 60.8 µM | [15] 60.5 µM | [16] 25.3 µM | [17] 23.1 µM | [19] > 100 µM

COc1cc2c(cc1OC)C1Cc3cc(OC)c(OC)cc3C(C2)N1C
inactive: [1] > 75 µM | [2] > 100 µM and 62.5 µM | [3] > 100 µM | [4] 63.1 µM | [18] > 100 µM | [6] > 75 µM | [7] > 100 µM | [9] 48 µM | [10] > 100 µM | [11] 44.3 µM | [13] 40.6 µM | [14] 61.1 µM | [15] > 75 µM | [16] > 100 µM | [17] > 75 µM | [19] > 75 µM and 44.3 µM

COC(=O)c1c(C)cccc1CC1Cc2c(C)cccc2C1=O (centres undefined)
inactive: [1] 27.9 µM | [2] 43.4 µM | [3] 55.8 µM | [4] 30.3 µM | [18] 24.1 µM | [5] 35.2 µM | [6] 27.9 µM | [7] 29.7 µM | [8] 35 µM | [9] 12 µM | [10] 80.2 µM | [11] 20.1 µM | [12] 23 µM | [13] 32.8 µM | [14] 23.8 µM | [15] 33.3 µM | [16] 20.7 µM | [17] 32.4 µM | [19] 61.9 µM

COc1cc(NCc2ccc3nc(OC)c(OC)nc3c2)cc(OC)c1OC
inactive: [1] > 100 µM | [2] > 100 µM | [3] > 100 µM | [4] > 100 µM | [18] > 100 µM | [6] > 100 µM | [7] 54.8 µM | [8] > 100 µM | [9] > 100 µM | [10] > 100 µM | [11] > 100 µM | [12] 83.9 µM | [13] 80.5 µM | [14] > 100 µM | [15] > 100 µM | [16] > 100 µM | [17] > 100 µM | [19] > 100 µM
